Measured values reported in PMC6787163, “Systematic Dual Targeting of Dendritic Cell C-Type Lectin Receptor DC-SIGN and TLR7 Using a Trifunctional Mannosylated Antigen” (Frontiers in Chemistry, 2019).

Columns and labels:
[1] = test system: moDCs; assay: Internalization of biotinylated hexavalent clusters by moDCs (flow cytometry); assay type: cell-based, human
Procedure: For the internalization, the moDCs were incubated with clusters b6, c6, d6, and e6 for 1 h at 4°C, where after unbound ligands were washed away with ice-cold medium. Warm medium was added to the moDCs, and samples were taken at the indicated time points and put on ice. Upon staining the moDCs with fluorophore-conjugated streptavidin, we could measure the signal loss of the membrane via flow cytometry. To exclude ligand-receptor dissociation before internalization, the moDCs were fixed under gentle conditions, hereby inhibiting receptor-mediated endocytosis. On fixed moDCs the clusters remained at the surface, as no signal loss could be detected (Supplementary Figure 1D). […] The di-mannoside clusters (b6, c6, and d6) were internalized relatively fast, with a 50% uptake within 5 min (Figure 5B). The tri-mannoside cluster e6 however remained longer at the membrane surface and only a 25% uptake was seen after 30 min. Similar results were seen using a pH-sensitive fluorophore. In acidic environments, such as the endosomes and lysosomes, the fluorescence of this dye increases. Pre-complexed clusters mirrored the accelerated uptake of the di-mannoside clusters over the e6 cluster (Supplementary Figure 1E). Although the DC-SIGN mediated uptake mechanism is known (Cambi et al., [2009]), the initiation trigger for endocytosis upon DC-SIGN-ligand binding remains unclear. Recognition of the di-mannoside clusters could induce signaling leading to accelerated uptake, whereas the tri-mannoside cluster could trigger a different signaling pathway. Nonetheless, the clusters harboring the smaller mannosides are preferred. Although the binding affinity of the clusters ranged from 0.9 to 6.6 μM, the di-mannosides induce more rapid DC-SIGN internalization over the tri-mannosides, and can thus increase intracellular peptide concentrations more efficiently for further antigen processing and presentation.
Immature day 5 moDCs were harvested and washed with cold HBSS (Thermo Fischer), after which half of the moDCs were gently fixed for 20 min at RT with 1% PFA in PBS. Afterwards, 20 μM of the different biotinylated mannose-clusters in cold HBSS were added. The moDCs were incubated for 1 h on ice, and washed in cold HBSS. Subsequently, warm HBSS was added to the cells, and cells were incubated at 37°C in a shaking heating block. At the indicated time points, a sample of the cells was taken and put on ice. After the last time point, the cells were stained with Streptavidin-Alexa647 (Thermo Fisher), measured using flow cytometry (CyAn™ ADP with Summit™ Software), and further analyzed using FlowJo v10. The same procedure was used for internalization with pHrodo^TM Red Avidin (Thermo Fischer). The different biotinylated mannose-clusters were however incubated with pHrodo-Avidin (ratio 2:1) for 15 min at 37°C, prior to moDC exposure. The fluorescence upon internalization was measured using flow cytometry (BD LSRFortessa™ X-20 with FACSDiva Software), and further analyzed using FlowJo v10.

[2] = target: T1, DC-SIGN S-ECD (Homo sapiens, UniProt Q9NNX6); assay: SPR direct interaction assay on oriented DC-SIGN S-ECD surface; assay type: binding; settings: for Kd: SPR direct interaction, oriented tetrameric DC-SIGN ECD surface, apparent Kd, read-out: Kdapp
T1 construct: The ECD of DC-SIGN (residues 66–404) was overexpressed and purified as previously described; made in house
T1 sequence (Q9NNX6 66-404): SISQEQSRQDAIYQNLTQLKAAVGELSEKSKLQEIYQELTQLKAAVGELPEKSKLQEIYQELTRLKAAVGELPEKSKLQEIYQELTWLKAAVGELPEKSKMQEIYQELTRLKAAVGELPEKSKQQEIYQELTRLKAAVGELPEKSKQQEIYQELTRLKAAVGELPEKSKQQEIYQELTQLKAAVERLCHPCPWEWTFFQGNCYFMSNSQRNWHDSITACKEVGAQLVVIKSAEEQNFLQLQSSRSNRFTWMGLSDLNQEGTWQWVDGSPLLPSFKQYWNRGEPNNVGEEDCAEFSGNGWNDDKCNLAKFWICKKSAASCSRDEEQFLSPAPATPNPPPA
Procedure: The affinity of the clusters for the extracellular domain (ECD) of the DC-SIGN receptor (DC-SIGN ECD) was estimated via surface plasmon resonance (SPR) assays (Tabarani et al., [2009]). The apparent Kd was calculated in direct interaction mode using a surface functionalized in an oriented manner with DC-SIGN ECD. In this assay, tetrameric DC-SIGN ECD is attached to the surface of the sensor chip via the N-terminus of its neck oligomerization domain, thus presenting its four carbohydrate recognition domains toward the solvent, realistically mimicking the presentation of the receptor on cell surface (Porkolab et al., [2019]). For some of the low affinity ligands, in the mM range, it was not possible to determine their affinity with this assay, and therefore a competition experiment was performed providing IC50 values (Timpano et al., [2008]) (Figure 3A). […] When comparing equivalent clusters, the α1,2-di-mannoside (B series) bound with the highest affinity (Figure 3A). […] A potential explanation for this effect could be that the spacing of clusters is more important for the larger tri-mannosides.
The direct interaction experiments were executed on a T200 Biacore with a CM3 series S sensor chip. Contrary to the competition assay described above, in this test, DC-SIGN ECD used harbors a StreptagII in its N-terminus (DC-SIGN S-ECD) to allow its capture and functionalization onto the surface in an oriented manner. Flow cells were functionalized as previously described (Porkolab et al., [2019]). Briefly, after EDC/NHS activation, flow cells were functionalized with streptactin protein in a first step. Flow cell 1 was used as control, while other flow cells were, in a second round of activation, functionalized with 100 μg/mL of a DC-SIGN S-ECD up to a final density ranging between 2,500 and 3,000 RU, via tag specific capture and linkage by amine coupling chemistry simultaneously. The compounds were injected in running buffer of 25 mM Tris pH 8, 150 mM NaCl, 4 mM CaCl2, 0.05% Tween 20 onto the surface at increasing concentrations with a flow rate of 30 μL/min. The ligand titration led to the determination of an apparent Kd value. The data was analyzed in BIAcore BIAevaluation software for direct interaction 1:1 calculation assuming that the Kd will reflect the affinity of the ligands (glycoclusters) for the DC-SIGN oriented surface used as a whole.

Row | SMILES | Kd [2] [nM] | also measured
1 | CC(=O)N[C@@H](CCCCn1cc(CO[C@H]2O[C@H](CO)[C@@H](O)[C@H](O[C@H]3O[C@H](CO)[C@@H](O)[C@H](O)[C@@H]3O)[C@@H]2O)nn1)C(=O)N[C@@H](CCCCn1cc(CO[C@H]2O[C@H](CO)[C@@H](O)[C@H](O[C@H]3O[C@H](CO)[C@@H](O)[C@H](O)[C@@H]3O)[C@@H]2O)nn1)C(=O)N[C@@H](CCCCn1cc(CO[C@H]2O[C@H](CO)[C@@H](O)[C@H](O[C@H]3O[C@H](CO)[C@@H](O)[C@H](O)[C@@H]3O)[C@@H]2O)nn1)C(=O)N[C@@H](CCCCn1cc(CO[C@H]2O[C@H](CO)[C@@H](O)[C@H](O[C@H]3O[C@H](CO)[C@@H](O)[C@H](O)[C@@H]3O)[C@@H]2O)nn1)C(=O)N[C@@H](CCCCn1cc(CO[C@H]2O[C@H](CO)[C@@H](O)[C@H](O[C@H]3O[C@H](CO)[C@@H](O)[C@H](O)[C@@H]3O)[C@@H]2O)nn1)C(=O)N[C@@H](CCCCn1cc(CO[C@H]2O[C@H](CO)[C@@H](O)[C@H](O[C@H]3O[C@H](CO)[C@@H](O)[C@H](O)[C@@H]3O)[C@@H]2O)nn1)C(=O)NCC(=O)N[C@@H](CCCCN)C(N)=O [C6] | 1170 | internalization by moDCs (loss of surface streptavidin signal) ([1]; 20 μM cluster, live moDCs): rapidly internalized; internalization by moDCs (pHrodo-avidin fluorescence increase) ([1]; clusters pre-complexed with pH-sensitive dye): internalized rapidly; uptake by immature moDCs ([1]; within 5 min at 37°C, 20 μM cluster): 50%
2 | CC(=O)N[C@@H](CCCCn1cc(CO[C@H]2O[C@H](CO)[C@@H](O)[C@H](O)[C@@H]2O[C@H]2O[C@H](CO)[C@@H](O)[C@H](O)[C@@H]2O)nn1)C(=O)NCC(=O)N[C@@H](CCCCn1cc(CO[C@H]2O[C@H](CO)[C@@H](O)[C@H](O)[C@@H]2O[C@H]2O[C@H](CO)[C@@H](O)[C@H](O)[C@@H]2O)nn1)C(=O)NCC(=O)N[C@@H](CCCCn1cc(CO[C@H]2O[C@H](CO)[C@@H](O)[C@H](O)[C@@H]2O[C@H]2O[C@H](CO)[C@@H](O)[C@H](O)[C@@H]2O)nn1)C(=O)NCC(=O)N[C@@H](CCCCN)C(N)=O [B3] | 19500 ± 500 | 
3 | CC[C@H](NC(=O)[C@H](CC(=O)O)NC(=O)[C@H](CC(C)C)NC(=O)[C@H](CCCNC(=N)N)NC(=O)[C@H](CCC(N)=O)NC(=O)[C@H](C)NC(=O)[C@H](CCC(=O)O)NC(=O)[C@@H](NC(=O)[C@H](Cc1c[nH]c2ccccc12)NC(=O)[C@H](CCC(=O)O)NC(=O)[C@@H]1CCCN1C(=O)[C@H](Cc1ccc(O)cc1)NC(=O)[C@H](CC(C)C)NC(=O)[C@H](CCC(N)=O)NC(=O)[C@H](CCCNC(=N)N)NC(=O)[C@H](CC(N)=O)NC(=O)[C@H](C)NC(=O)[C@@H](NC(=O)[C@@H](NC(=O)[C@@H]1CCCN1C(=O)CNC(=O)[C@@H]1CCCN1C(=O)[C@H](CCC(=O)O)NC(=O)[C@H](CC(C)C)NC(=O)[C@H](Cc1ccc(O)cc1)NC(=O)[C@@H](NC(=O)[C@H](Cc1c[nH]cn1)NC(=O)[C@@H](NC(=O)[C@@H](NC(=O)[C@H](CCCCn1cc(CCC(=O)NCCCC[C@H](NC(=O)CNC(=O)[C@H](CCCCn2cc(CO[C@H]3O[C@H](CO)[C@@H](O)[C@H](O)[C@@H]3O[C@H]3O[C@H](CO)[C@@H](O)[C@H](O)[C@@H]3O)nn2)NC(=O)[C@H](CCCCn2cc(CO[C@H]3O[C@H](CO)[C@@H](O)[C@H](O)[C@@H]3O[C@H]3O[C@H](CO)[C@@H](O)[C@H](O)[C@@H]3O)nn2)NC(=O)[C@H](CCCCn2cc(CO[C@H]3O[C@H](CO)[C@@H](O)[C@H](O)[C@@H]3O[C@H]3O[C@H](CO)[C@@H](O)[C@H](O)[C@@H]3O)nn2)NC(=O)[C@H](CCCCn2cc(CO[C@H]3O[C@H](CO)[C@@H](O)[C@H](O)[C@@H]3O[C@H]3O[C@H](CO)[C@@H](O)[C@H](O)[C@@H]3O)nn2)NC(=O)[C@H](CCCCn2cc(CO[C@H]3O[C@H](CO)[C@@H](O)[C@H](O)[C@@H]3O[C@H]3O[C@H](CO)[C@@H](O)[C@H](O)[C@@H]3O)nn2)NC(=O)[C@H](CCCCn2cc(CO[C@H]3O[C@H](CO)[C@@H](O)[C@H](O)[C@@H]3O[C@H]3O[C@H](CO)[C@@H](O)[C@H](O)[C@@H]3O)nn2)NC(C)=O)C(N)=O)nn1)NC(C)=O)C(C)C)[C@@H](C)O)[C@@H](C)O)C(C)C)[C@@H](C)O)[C@@H](C)O)C(=O)N[C@@H](Cc1c[nH]c2ccccc12)C(=O)N[C@@H](CCCNC(=N)N)C(=O)NCC(=O)N[C@@H](CCCCN)C(N)=O [B6-gp100] |  | decrease of DC-SIGN affinity on conjugation to gp100 or gp100-TLR7L (factor) ([2]; Kd-app of conjugate vs unconjugated cluster): about 10

More lines, main results first:

Row | Kd [2] [nM] | SMILES | also measured
4 | 2440 | CC(=O)N[C@@H](CCCCn1cc(CO[C@H]2O[C@H](CO[C@H]3O[C@H](CO)[C@@H](O)[C@H](O)[C@@H]3O)[C@@H](O)[C@H](O[C@H]3O[C@H](CO)[C@@H](O)[C@H](O)[C@@H]3O)[C@@H]2O)nn1)C(=O)NCC(=O)N[C@@H](CCCCn1cc(CO[C@H]2O[C@H](CO[C@H]3O[C@H](CO)[C@@H](O)[C@H](O)[C@@H]3O)[C@@H](O)[C@H](O[C@H]3O[C@H](CO)[C@@H](O)[C@H](O)[C@@H]3O)[C@@H]2O)nn1)C(=O)NCC(=O)N[C@@H](CCCCn1cc(CO[C@H]2O[C@H](CO[C@H]3O[C@H](CO)[C@@H](O)[C@H](O)[C@@H]3O)[C@@H](O)[C@H](O[C@H]3O[C@H](CO)[C@@H](O)[C@H](O)[C@@H]3O)[C@@H]2O)nn1)C(=O)NCC(=O)N[C@@H](CCCCN)C(N)=O [E3] | 
5 | 48700 ± 2570 | CC(=O)N[C@@H](CCCCn1cc(CO[C@H]2O[C@H](CO[C@H]3O[C@H](CO)[C@@H](O)[C@H](O)[C@@H]3O)[C@@H](O)[C@H](O)[C@@H]2O)nn1)C(=O)NCC(=O)N[C@@H](CCCCn1cc(CO[C@H]2O[C@H](CO[C@H]3O[C@H](CO)[C@@H](O)[C@H](O)[C@@H]3O)[C@@H](O)[C@H](O)[C@@H]2O)nn1)C(=O)NCC(=O)N[C@@H](CCCCn1cc(CO[C@H]2O[C@H](CO[C@H]3O[C@H](CO)[C@@H](O)[C@H](O)[C@@H]3O)[C@@H](O)[C@H](O)[C@@H]2O)nn1)C(=O)NCC(=O)N[C@@H](CCCCN)C(N)=O [D3] | 
